Measurements reported in patent publication US5840893A, “Compounds for treating infectious diseases” (priority 1996, dated 1998).
“Also recorded” adds a separate entry of the source.

How the values were obtained:
HIV-1 [1] = assay: AZT and Compound No. 2 in combination on HIV-1 infected monocyte cultures (RT activity); type: cell-based, HIV-1 in human monocyte cultures; conditions: for RT activity: 100 nM Compound No. 2, AZT 0
Method: Primary human monocytes were obtained from peripheral blood by Ficoll-Hypaque centrifugation and adherence to plastic as described previously. Gartner S. P., et al., 1986, Science 233:215. Briefly, after Ficoll-Hypaque (Pharmacia) separation, PBMCs were washed 4 times with DMEM (the last wash was done at 800 rpm to remove platelets) and resuspended in monocyte culture medium [DMEM supplemented with 1 mM glutamine, 10% heat-inactivated human serum, 1% penicillin+streptomycin mixture (Sigma)] at a density of 6×10^6 cells/ml. Cells were seeded in 24-well plates (1 ml per well) and incubated for 2 h at 37° C., 5% CO2. Following incubation, cells were washed 3 times with DMEM to remove non-adherent cells and incubation was continued in monocyte culture medium supplemented with 250 U/ml human M-CSF (Sigma). Cells were allowed to mature for 7 days prior to infection with the monocyte-tropic strain, HIV-1ADA. Nuovo, G. J., et al., 1992, Diagn. Mol. Pathol. 1:98. Two hours after infection, cells were washed with medium and cultured in RPMI supplemented with 10% human serum. In experiments where PCR analysis was performed, virus was pretreated with RNAse-free DNAse (Boehinger-Mannheim)for 2 h at room temperature and then filtered though a 0.2 μm pore nitrocellulose filter prior to infection.
(§1) For the reverse transcriptase (RT) assay, 10 μl of culture supernatant was added to 40 μl of reaction mixture (final composition was 50 mM Tris-HCl, pH 7.8; 20 mM KCl; 5 mM MgCl2; 1 mM DTT; 0.1% Triton X-100; 0.2 OD/ml polyA; 0.2 OD/ml oligo(dT)12-18; and 40 μCi/ml ^3 H-dTTP (76 Ci/mmol, DuPont) and incubated 2 hr at 37° C. 5 μl of the reaction mixture was then spotted onto the DE 81 (Whatman) paper. Paper was air dried and washed 5 times with 5% Na2 HPO4, followed by rinsing with distilled water. After air drying, paper was put on a Flexi Filter plate (Packard), covered with scintillation fluid and counted in a Top Count Microplate Counter (Packard). Results are expressed as counts per minute in 1 ml of supernatant (cpm/ml).
In view of these premises, the effects on HIV-1 replication in human monocyte cultures of the various concentrations of AZT, alone or in combination with 100 nM Compound No. 2, were tested using the protocols of Sections 6.2.1 and 6.2.2. Drugs were added to the monocyte cultures together with HIV-1 at about 10^5 TCID/ml. The concentration of drugs was maintained on refeeding. HIV-1 replication was assessed by assay of the supernatant for reverse transcriptase activity. The results are expressed as mean±std. dev. (cpmx10^-3) in Table V.

reverse transcriptase = target: T1, reverse transcriptase (HIV-1 M:B_HXB2R, UniProt P04585); assay: Inhibition of reverse transcriptase; type: biochemical; conditions: data not shown
T1 construct: infection experiments used HIV-1 ADA virus supernatant

HIV-1ADA = assay: RT activity in supernatant of HIV-1ADA-infected mitogen-stimulated peripheral blood leukocytes; type: cell-based, HIV-1ADA in human PBMC
Method: PBMCs were purified by Ficoll-Hypaque centrifugation and activated by 10 μg/ml PHA-P (Sigma) and 20 U/ml recombinant human IL-2 (rhIL-2) in RPMI 1640 supplemented with 10% FBS (HyClone). After 24 h incubation, cells were washed and inoculated with HIV-1ADA in RPMI 1640 supplemented with 10% FBS. After a 2 h adsorption, free virus was washed away and cells were cultured in RPMI 1640 supplemented with 10% FBS and 20 U/ml rhIL-2.
as §1

HIV-1 [2] = assay: Inhibition of HIV-1 replication in cultured macrophages (Table I); type: cell-based; conditions: Human immunodeficiency virus 1, Macrophage; 50% inhibition of viral growth, RT or p24, macrophages
Method: A quantitative measurement of the activity of the compounds of the invention to block the replication of HIV-1 in non-dividing cells can be determined by culture of a macrophage-tropic strain of HIV-1 on peripheral blood-derived macrophages. The cells are cultured for 5-6 days prior to infection in a medium consisting of DMEM supplemented with 10% type A/B human serum and 200 U/ml Macrophage Colony Stimulating Factor, with half the medium changed after 3 days, to reach a density of about 10^6 cells per 5 ml well. A macrophage-tropic viral stock may be grown on these cells. The concentration of infectious particles in the stock is estimated by measurement of p24 antigen concentration.
To test the effect of compounds of the invention on HIV- 1 infection in the above-described culture system, the medium is removed and replaced with medium containing HIV-1 at a concentration of 1 ng of p24 (10^4 TCID50 /ml (TCID=tissue culture infectious doses)) and a known concentration of the compound of the invention (the inhibitor). After 24 hours, the cultures are washed to remove non-adherent virus and the culture is re-fed with medium containing the inhibitor at the desired concentration. The amount of replication of HIV-1 is estimated by an assay of the reverse transcriptase activity or by an assay of the concentration of p24 antigen in the culture medium every 2-3 days throughout the post-infection period. In a preferred embodiment the anti-HIV potency of the candidate drug is measured by comparison of the concentration of reverse transcriptase (RT) or of p24 antigen in the medium of the treated and control cultures at the time of the peak of these values in non-treated control cultures, that is about day 5 or 6 post-infection. Repetition at various levels of inhibitor allows for the calculation of the concentration of inhibitor that achieves 50% inhibition of viral growth, IC50. Table I discloses the IC50 of various inhibitors.

[3] = Table IV; measured in a 25 gr mouse
Method: Standard addition curves for each test compound were constructed by adding increased amounts of drug to mouse or human A^+ plasma (Long Island Blood Services; Melville, N.Y.). […] The eluted sample was reduced to dryness in a rotary evaporator and resuspended in 1.0 ml Buffer A.
Female ND4 Swiss Webster mice (21-24 g) were obtained from Harlan Sprague Dawley (Indianapolis, Ind.) and randomly placed in groups of five in cages with free access to food and water. […] The other CNI compounds were administered intraperitoneally or by oral gavage as a solution in water titrated with sufficient HCl to dissolve the drug. At various time points, ranging from 5 min to 4 days, a single group of animals was euthanized by carbon dioxide inhalation and bled by cardiac puncture using heparin as an anticoagulant. The blood from the five mice in the group was pooled and centrifuged at 14000×g for 10 min. The volume of plasma was measured, and equal volume of Buffer A added, and the mixture extracted and analyzed as described above, except that the dried eluates were resuspended in 200 μl Buffer A and 100 μl was injected onto the high performance liquid chromatography (HPLC) system.
The area under the plasma concentration-time curve (AUC) was determined, and bioavailability was measured as AUCoral /AUCi.p.. […] The volume of distribution (VD) was calculated as dose/B, and the total clearance rate (Cltot) calculated as β*VD. Cmax and tmax are the maximal plasma concentration and time of this measurement, respectively.

`CC(=O)c1cc(Nc2cc(C)[n+](C)c(N)n2)cc(C(C)=O)c1.[I-]` [Compound No. 2, 2-amino-4-(3,5-diacetylphenyl)amino-1,6-dimethylpyrimidinium iodide] showed an inhibition at 0.1 µM (HIV-1 [1]; Human immunodeficiency virus 1, Monocyte, 264 h, day-11, 100 nM Compound No. 2 alone, read-out: reduction in RT activity) of roughly 60%, an RT activity (HIV-1 [1]; day-7) of 0.37 ± 0.07 cpmx10^-3 and an RT activity (HIV-1 [1]; day-11) of 0.72 ± 0.30 cpmx10^-3. For the same compound, the “inhibition of reverse transcriptase” value (reverse transcriptase) was “does not inhibit reverse transcriptase”, the “reduction in viral output” value (HIV-1ADA; 1 and 10 μM, lower MOI (1 ng p24/10^6 cells), FIG. 3B) was roughly 2 fold and the “anti-viral effect on activated PBLs / replicating cells” value (HIV-1ADA; actively dividing cell populations, FIG. 3) was “much less expressed in these actively dividing cell populations; also recorded: No anti-viral effect was detected”. The “effect on viral production” value (HIV-1ADA; up to 10 μM, higher MOI (10 ng p24/10^6 cells), FIG. 3A) was “only a marginal effect on viral production”, the IC50 (HIV-1 [2]) was 1 nM and the Clearance [3] was 35.35 mL/min.
